Several values for one entry are separate records, joined by “and”; a condition that tells them apart may be missing. Identical values can stand only once. ± gives the expanded uncertainty stated by the source.
Key:
[1] = for vapor or sublimation pressure: Liquid, Transpiration method
[2] = Molar enthalpy of transition or fusion; conditions: Crystal; DSC
[3] = molar heat capacity at constant pressure; conditions: 101.33 kPa, Crystal, DSC

N#Cc1cccc2ccccc12 [1-cyanonaphthalene]
Conditions	molar heat capacity at constant pressure	vapor or sublimation pressure [kPa]
[1], 317.4 K	–	0.00232 ± 0.00011
[1], 321.3 K	–	0.00324 ± 0.00015
[1], 323.2 K	–	0.00381 ± 0.00018
[1], 326.3 K	–	0.00461 ± 0.00021
[1], 328.2 K	–	0.00556 ± 0.00027
[1], 331.2 K	–	0.00702 ± 0.00033
[1], 333.3 K	–	0.00785 ± 0.00037
[1], 335.2 K	–	0.00943 ± 0.00045
[1], 338.2 K	–	0.0116 ± 0.0005
[1], 340.2 K	–	0.01358 ± 0.00064
[1], 343.2 K	–	0.01719 ± 0.00079
[1], 345.1 K	–	0.01921 ± 0.00089
[1], 348.1 K	–	0.02329 ± 0.0011
[1], 351.1 K	–	0.02893 ± 0.0013
[1], 353.2 K	–	0.03229 ± 0.0014
[3], 268.9 K	144.7 ± 30 J/K/mol and 156.8 ± 32 J/K/mol	–
[3], 269.3 K	148.8 ± 30 J/K/mol and 159.1 ± 32 J/K/mol	–
[3], 269.7 K	152.4 ± 31 J/K/mol and 161.1 ± 33 J/K/mol	–
[3], 270.1 K	155.6 ± 32 J/K/mol and 162.6 ± 33 J/K/mol	–
[3], 270.5 K	158.2 ± 32 J/K/mol and 164.1 ± 33 J/K/mol	–
[3], 270.9 K	160.6 ± 33 J/K/mol and 165.4 ± 34 J/K/mol	–
[3], 271.3 K	162.5 ± 33 J/K/mol and 166.5 ± 34 J/K/mol	–
[3], 271.7 K	164.3 ± 33 J/K/mol and 167.5 ± 34 J/K/mol	–
[3], 272.1 K	168.4 ± 34 J/K/mol and 165.9 ± 34 J/K/mol	–
[3], 272.5 K	169.2 ± 34 J/K/mol and 167.2 ± 34 J/K/mol	–
[3], 272.9 K	168.6 ± 34 J/K/mol and 170 ± 34 J/K/mol	–
[3], 273.3 K	169.6 ± 34 J/K/mol and 170.8 ± 35 J/K/mol	–
[3], 273.6 K	170.5 ± 35 J/K/mol and 171.4 ± 35 J/K/mol	–
[3], 274 K	171.5 ± 35 J/K/mol and 172.1 ± 35 J/K/mol	–
[3], 274.4 K	172.1 ± 35 J/K/mol and 172.7 ± 35 J/K/mol	–
[3], 274.8 K	172.9 ± 35 J/K/mol and 173.4 ± 35 J/K/mol	–
[3], 275.2 K	173.5 ± 35 J/K/mol and 173.9 ± 35 J/K/mol	–
[3], 275.5 K	174.2 ± 35 J/K/mol and 174.4 ± 35 J/K/mol	–
[3], 275.9 K	174.6 ± 36 J/K/mol and 174.9 ± 36 J/K/mol	–
[3], 276.3 K	175.1 ± 36 J/K/mol and 175.4 ± 36 J/K/mol	–
[3], 276.7 K	175.5 ± 36 J/K/mol and 175.6 ± 36 J/K/mol	–
[3], 277 K	175.9 ± 36 J/K/mol	–
[3], 277.1 K	175.7 ± 36 J/K/mol	–
[3], 277.4 K	176 ± 36 J/K/mol and 176.3 ± 36 J/K/mol	–
[3], 277.8 K	176.2 ± 36 J/K/mol and 176.6 ± 36 J/K/mol	–
[3], 278.2 K	177 ± 36 J/K/mol and 176.6 ± 36 J/K/mol	–
[3], 278.5 K	177.5 ± 36 J/K/mol and 177.1 ± 36 J/K/mol	–
[3], 278.9 K	177.9 ± 36 J/K/mol and 177.6 ± 36 J/K/mol	–
[3], 279.3 K	178.4 ± 36 J/K/mol and 178.1 ± 36 J/K/mol	–
[3], 279.6 K	179 ± 36 J/K/mol and 178.7 ± 36 J/K/mol	–
[3], 280 K	179.6 ± 36 J/K/mol and 179.5 ± 36 J/K/mol	–
[3], 280.4 K	180.4 ± 37 J/K/mol and 180.3 ± 37 J/K/mol	–
[3], 280.7 K	181.1 ± 37 J/K/mol	–
[3], 280.8 K	181.2 ± 37 J/K/mol	–
[3], 281.1 K	181.9 ± 37 J/K/mol and 182 ± 37 J/K/mol	–
[3], 281.5 K	182.8 ± 37 J/K/mol and 182.9 ± 37 J/K/mol	–
[3], 281.8 K	183.7 ± 37 J/K/mol	–
[3], 281.9 K	183.8 ± 37 J/K/mol	–
[3], 282.2 K	184.7 ± 38 J/K/mol and 184.8 ± 38 J/K/mol	–
[3], 282.6 K	185.7 ± 38 J/K/mol and 185.8 ± 38 J/K/mol	–
[3], 282.9 K	186.7 ± 38 J/K/mol and 186.6 ± 38 J/K/mol	–
[3], 283.3 K	187.9 ± 38 J/K/mol and 187.6 ± 38 J/K/mol	–
[3], 283.7 K	188.9 ± 38 J/K/mol and 188.4 ± 38 J/K/mol	–
[3], 284 K	190 ± 39 J/K/mol and 189 ± 38 J/K/mol	–
[3], 284.4 K	190.9 ± 39 J/K/mol and 189.8 ± 38 J/K/mol	–
[3], 284.8 K	191.7 ± 39 J/K/mol and 190.3 ± 39 J/K/mol	–
[3], 285.1 K	192.3 ± 39 J/K/mol and 190.7 ± 39 J/K/mol	–
[3], 285.5 K	192.8 ± 39 J/K/mol and 191 ± 39 J/K/mol	–
[3], 285.9 K	193.1 ± 39 J/K/mol and 191.4 ± 39 J/K/mol	–
[3], 286.2 K	193.2 ± 39 J/K/mol and 191.6 ± 39 J/K/mol	–
[3], 286.6 K	193.3 ± 39 J/K/mol and 191.7 ± 39 J/K/mol	–
[3], 286.9 K	193.2 ± 39 J/K/mol and 192 ± 39 J/K/mol	–
[3], 287.3 K	193.3 ± 39 J/K/mol and 192.4 ± 39 J/K/mol	–
[3], 287.7 K	193.2 ± 39 J/K/mol and 192.6 ± 39 J/K/mol	–
[3], 288 K	193 ± 39 J/K/mol	–
[3], 288.4 K	192.8 ± 39 J/K/mol and 193.1 ± 39 J/K/mol	–
[3], 288.8 K	192.4 ± 39 J/K/mol and 193.1 ± 39 J/K/mol	–
[3], 289.1 K	192.1 ± 39 J/K/mol and 193.1 ± 39 J/K/mol	–
[3], 289.5 K	191.7 ± 39 J/K/mol and 193.1 ± 39 J/K/mol	–
[3], 289.8 K	191.4 ± 39 J/K/mol and 193.1 ± 39 J/K/mol	–
[3], 290.2 K	191.3 ± 39 J/K/mol and 193 ± 39 J/K/mol	–
[3], 290.6 K	191.3 ± 39 J/K/mol and 192.9 ± 39 J/K/mol	–
[3], 290.9 K	191.6 ± 39 J/K/mol and 192.9 ± 39 J/K/mol	–
[3], 291.3 K	191.9 ± 39 J/K/mol and 192.9 ± 39 J/K/mol	–
[3], 291.7 K	192.2 ± 39 J/K/mol and 193.1 ± 39 J/K/mol	–
[3], 292 K	192.7 ± 39 J/K/mol and 193.5 ± 39 J/K/mol	–
[3], 292.4 K	193.3 ± 39 J/K/mol and 193.6 ± 39 J/K/mol	–
[3], 292.8 K	193.8 ± 39 J/K/mol and 194.2 ± 39 J/K/mol	–
[3], 293.1 K	194.5 ± 40 J/K/mol and 194.6 ± 40 J/K/mol	–
[3], 293.5 K	195.3 ± 40 J/K/mol and 195.4 ± 40 J/K/mol	–
[3], 293.8 K	196.1 ± 40 J/K/mol	–
[3], 294.2 K	196.8 ± 40 J/K/mol and 196.7 ± 40 J/K/mol	–
[3], 294.6 K	197.8 ± 40 J/K/mol and 197.4 ± 40 J/K/mol	–
[3], 294.9 K	198.7 ± 40 J/K/mol and 198.1 ± 40 J/K/mol	–
[3], 295.3 K	199.6 ± 40 J/K/mol and 198.9 ± 40 J/K/mol	–
[3], 295.7 K	200.6 ± 41 J/K/mol and 199.8 ± 41 J/K/mol	–
[3], 296 K	201.6 ± 41 J/K/mol and 200.6 ± 41 J/K/mol	–
[3], 296.4 K	202.5 ± 41 J/K/mol and 201.7 ± 41 J/K/mol	–
[3], 296.8 K	203.6 ± 41 J/K/mol and 202.9 ± 41 J/K/mol	–

Conditions	Normal melting temperature [°C]
[1], Crystal, DTA	34 ± 1.3

Conditions	Molar enthalpy of transition or fusion [kJ/mol]
[2]	17.4 ± 0.6

Source: the NIST ThermoML archive (doi:10.1016/j.tca.2018.07.026)
